In patent publication US11013224B2, “Substance and composition for veterinary purpose” (priority 2016, dated 2021):
Where two headings read alike, the source gives them in different places.

What was measured:
hoof [1] = experiment: Application of cromoglycate using limb perfusion in healthy horses; format: in vivo
Protocol: Standard blood analysis was carried out before and after treatment. Hoof quality and growth were determined over a period of time as described above.

hoof [2] = experiment: Application of cromoglycate using inhalation in horses; format: in vivo
Protocol: Gas mix system and the Air-ONE nebuliser were prepared and operated as per manufacturer's instructions. […] Treatment was continued until all 70 ml had been inhaled (between 20 to 30 minutes). Horses were treated at 2 day intervals for at least 1 and up to 3 weeks. […] Micro-circulation was measured during inhalation using PeriFlux System 5000. Hoof quality and growth were determined as described above.

hoof [3] = test system: hoof
Protocol: Routine equine intravenous fluid therapy was carried out twice per week for 4 weeks. Standard blood analysis was carried out on Abbott i-STAT systems, Abbott Architect ci8200 and Architect Celldyn CD3700 before and after treatment. Micro-circulation was measured during treatment using PeriFlux System 5000. Hoof quality and growth were determined as described above.

[4] = limb perfusion, 35 ml of 71 g/L per front limb

`O=C(O)c1cc(=O)c2c(OCC(O)COc3cccc4oc(C(=O)O)cc(=O)c34)cccc2o1` [sodium cromoglycate] was tested, and the “Heart rate, temperature and gut sounds” value (hoof [1]; 24 h after injection) was “normal”, the “Hoof growth and hoof quality” value (hoof [1]; limb perfusion) was “increases hoof growth and improves hoof quality” and the “Ionized calcium, pre vs post treatment blood data” value (hoof [1]; [4]) was “a change”. The “Potassium, pre vs post treatment blood data” value (hoof [1]; [4]) was “a reduction”, the “Tolerability of repeated inhalation” value (hoof [2]; 70 ml of 70 g/l per horse by nebuliser, 2 day intervals, 1 to 3 weeks) was “well tolerated” and the Calcium upon treatment (hoof [2]; inhalation) was “effected”. For the same molecule, the “Digestion, coat and hoof quality” value (hoof [2]; inhalation) was “improves”, the “Hoof growth and hoof quality” value (hoof [2]; inhalation) was “increases hoof growth and improves hoof quality” and the Micro-circulation (hoof [2]; measured during inhalation, PeriFlux System 5000) was “activates”. The “Hoof growth and hoof quality” value (hoof [3]; intravenous fluid) was “increases hoof growth and improves hoof quality”, the “Digestion, coat and hoof quality” value (hoof [3]; intravenous fluid infusion) was “improves” and the Calcium upon treatment (hoof [3]; intravenous fluid therapy) was “effected”.
